Paper PMC10600239, “Selective MCL-1 inhibitor ABBV-467 is efficacious in tumor models but is associated with cardiac troponin increases in patients” (Communications Medicine, 2023)
pEC50, pIC50, pKi: −log10 of the molar value.

Columns and labels:
Test in all cases: Off-target profiling (Supplementary Data 1)
[1] = biological target: off-target receptors, ion channels, and transporters (Homo sapiens, UniProt O95819); settings: TR-FRET Kinome; Invitrogen A-1180691.2 .1(Subs Conc)
[2] = biological target: off-target receptors, ion channels, and transporters (Homo sapiens, UniProt P28223)
Sequence of off-target receptors, ion channels, and transporters (Homo sapiens, UniProt P28223) (P28223 whole entry): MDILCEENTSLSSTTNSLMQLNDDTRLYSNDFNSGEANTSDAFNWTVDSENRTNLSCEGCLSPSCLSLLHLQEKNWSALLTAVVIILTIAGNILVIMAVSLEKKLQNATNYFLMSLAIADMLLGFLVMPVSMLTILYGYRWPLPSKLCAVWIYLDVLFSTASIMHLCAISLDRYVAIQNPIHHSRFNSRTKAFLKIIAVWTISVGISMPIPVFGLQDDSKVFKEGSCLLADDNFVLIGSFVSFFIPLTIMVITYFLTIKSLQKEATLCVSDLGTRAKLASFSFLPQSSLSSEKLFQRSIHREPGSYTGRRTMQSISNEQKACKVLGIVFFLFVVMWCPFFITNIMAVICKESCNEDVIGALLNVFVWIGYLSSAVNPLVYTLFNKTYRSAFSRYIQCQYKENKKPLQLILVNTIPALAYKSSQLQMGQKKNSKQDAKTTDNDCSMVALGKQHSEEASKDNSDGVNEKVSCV

[3] = biological target: off-target receptors, ion channels, and transporters (Homo sapiens, UniProt P35348)
Sequence of off-target receptors, ion channels, and transporters (Homo sapiens, UniProt P35348) (P35348 whole entry): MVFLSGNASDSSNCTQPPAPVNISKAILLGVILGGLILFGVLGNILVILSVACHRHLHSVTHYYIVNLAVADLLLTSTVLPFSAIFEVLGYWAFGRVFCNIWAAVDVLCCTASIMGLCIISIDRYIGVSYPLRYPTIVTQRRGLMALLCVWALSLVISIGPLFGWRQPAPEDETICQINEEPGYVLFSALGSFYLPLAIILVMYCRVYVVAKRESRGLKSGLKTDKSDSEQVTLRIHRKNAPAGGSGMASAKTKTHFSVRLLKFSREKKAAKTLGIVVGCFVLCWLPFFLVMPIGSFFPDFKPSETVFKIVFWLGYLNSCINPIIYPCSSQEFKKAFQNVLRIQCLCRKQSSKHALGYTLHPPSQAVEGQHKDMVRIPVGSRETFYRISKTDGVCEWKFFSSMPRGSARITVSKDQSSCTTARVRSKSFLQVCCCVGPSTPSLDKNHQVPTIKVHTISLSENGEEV

[4] = biological target: off-target receptors, ion channels, and transporters (Homo sapiens, UniProt P51955); settings: TR-FRET Kinome; Invitrogen A-1196581.2 .025(Subs Conc)
Sequence of off-target receptors, ion channels, and transporters (Homo sapiens, UniProt P51955) (P51955 whole entry): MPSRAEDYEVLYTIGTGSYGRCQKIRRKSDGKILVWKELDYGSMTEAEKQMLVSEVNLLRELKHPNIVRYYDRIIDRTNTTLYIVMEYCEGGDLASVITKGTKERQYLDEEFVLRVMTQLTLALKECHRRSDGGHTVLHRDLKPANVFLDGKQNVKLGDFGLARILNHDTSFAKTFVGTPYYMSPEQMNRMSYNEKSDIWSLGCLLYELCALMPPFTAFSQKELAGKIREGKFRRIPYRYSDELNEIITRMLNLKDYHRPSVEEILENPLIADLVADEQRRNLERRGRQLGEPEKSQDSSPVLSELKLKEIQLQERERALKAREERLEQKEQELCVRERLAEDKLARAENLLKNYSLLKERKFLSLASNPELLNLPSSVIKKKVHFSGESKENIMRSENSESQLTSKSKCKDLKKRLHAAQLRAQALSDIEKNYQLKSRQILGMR

[5] = biological target: off-target receptors, ion channels, and transporters (Homo sapiens, UniProt P08069); settings: TR-FRET Kinome; Invitrogen A-1198909.2 .2(Subs Conc)
Sequence of off-target receptors, ion channels, and transporters (Homo sapiens, UniProt P08069) (P08069 31-1367): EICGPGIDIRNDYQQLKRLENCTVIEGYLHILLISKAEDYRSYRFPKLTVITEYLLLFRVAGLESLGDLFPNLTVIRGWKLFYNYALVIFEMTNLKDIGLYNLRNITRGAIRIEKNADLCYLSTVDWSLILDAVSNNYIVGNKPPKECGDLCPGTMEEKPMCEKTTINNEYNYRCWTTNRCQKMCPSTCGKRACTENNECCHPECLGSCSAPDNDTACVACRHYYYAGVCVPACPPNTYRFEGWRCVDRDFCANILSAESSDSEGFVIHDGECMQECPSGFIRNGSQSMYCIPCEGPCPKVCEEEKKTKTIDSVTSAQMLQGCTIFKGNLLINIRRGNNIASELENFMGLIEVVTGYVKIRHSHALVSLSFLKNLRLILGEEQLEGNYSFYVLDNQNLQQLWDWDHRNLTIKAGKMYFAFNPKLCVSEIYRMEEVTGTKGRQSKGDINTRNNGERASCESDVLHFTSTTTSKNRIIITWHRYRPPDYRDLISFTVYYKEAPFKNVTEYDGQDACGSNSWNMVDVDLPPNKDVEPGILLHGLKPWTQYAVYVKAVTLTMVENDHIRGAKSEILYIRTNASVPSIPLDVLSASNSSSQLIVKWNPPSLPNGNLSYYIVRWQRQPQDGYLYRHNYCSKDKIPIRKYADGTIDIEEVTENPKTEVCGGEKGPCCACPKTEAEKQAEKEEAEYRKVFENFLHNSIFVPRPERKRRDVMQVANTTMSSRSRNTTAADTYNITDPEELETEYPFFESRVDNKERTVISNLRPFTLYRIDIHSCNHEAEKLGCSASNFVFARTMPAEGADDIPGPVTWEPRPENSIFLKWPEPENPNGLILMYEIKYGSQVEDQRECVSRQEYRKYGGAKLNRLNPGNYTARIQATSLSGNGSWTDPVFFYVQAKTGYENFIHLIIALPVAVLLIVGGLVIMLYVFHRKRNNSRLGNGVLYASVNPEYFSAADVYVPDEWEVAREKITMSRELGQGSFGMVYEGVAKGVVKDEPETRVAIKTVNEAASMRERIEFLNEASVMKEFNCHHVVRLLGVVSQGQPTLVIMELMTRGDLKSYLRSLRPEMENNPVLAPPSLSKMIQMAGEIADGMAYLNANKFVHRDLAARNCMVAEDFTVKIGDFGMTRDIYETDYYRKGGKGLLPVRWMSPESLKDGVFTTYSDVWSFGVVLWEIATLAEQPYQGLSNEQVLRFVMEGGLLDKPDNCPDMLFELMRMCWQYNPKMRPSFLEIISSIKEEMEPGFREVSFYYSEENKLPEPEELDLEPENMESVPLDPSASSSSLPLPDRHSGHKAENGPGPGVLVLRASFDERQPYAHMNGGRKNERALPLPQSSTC

[6] = biological target: off-target receptors, ion channels, and transporters (Homo sapiens, UniProt P35372)
Sequence of off-target receptors, ion channels, and transporters (Homo sapiens, UniProt P35372) (P35372 whole entry): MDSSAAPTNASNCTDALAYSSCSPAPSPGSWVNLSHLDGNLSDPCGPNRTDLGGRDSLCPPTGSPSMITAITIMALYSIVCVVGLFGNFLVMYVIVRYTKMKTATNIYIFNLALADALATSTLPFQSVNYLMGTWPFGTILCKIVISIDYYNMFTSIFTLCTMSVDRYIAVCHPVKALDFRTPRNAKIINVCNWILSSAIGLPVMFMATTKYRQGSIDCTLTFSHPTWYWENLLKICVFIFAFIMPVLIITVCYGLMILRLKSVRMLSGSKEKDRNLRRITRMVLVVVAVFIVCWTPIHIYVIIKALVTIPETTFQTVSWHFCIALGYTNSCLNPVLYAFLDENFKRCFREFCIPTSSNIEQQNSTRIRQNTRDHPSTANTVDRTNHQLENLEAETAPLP

[7] = biological target: off-target receptors, ion channels, and transporters (Homo sapiens, UniProt O43353); settings: TR-FRET Kinome; Millipore A-1499319.7 .1(Subs Conc)
[8] = biological target: off-target receptors, ion channels, and transporters (Homo sapiens, UniProt Q9UKP6); settings: CEREP
Sequence of off-target receptors, ion channels, and transporters (Homo sapiens, UniProt Q9UKP6) (Q9UKP6 whole entry): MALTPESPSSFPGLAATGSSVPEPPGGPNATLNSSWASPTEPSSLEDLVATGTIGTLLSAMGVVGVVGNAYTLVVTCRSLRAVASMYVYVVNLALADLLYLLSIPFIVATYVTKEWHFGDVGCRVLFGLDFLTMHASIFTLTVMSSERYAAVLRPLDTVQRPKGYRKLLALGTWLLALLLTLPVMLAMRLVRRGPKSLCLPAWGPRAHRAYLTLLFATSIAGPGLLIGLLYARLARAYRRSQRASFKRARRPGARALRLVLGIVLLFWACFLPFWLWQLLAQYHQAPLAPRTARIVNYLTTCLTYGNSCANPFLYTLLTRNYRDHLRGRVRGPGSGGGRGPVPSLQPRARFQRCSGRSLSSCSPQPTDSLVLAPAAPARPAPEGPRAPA

[9] = biological target: off-target receptors, ion channels, and transporters (Homo sapiens, UniProt P07948); settings: TR-FRET Kinome, SignalChem A-1196581.2 .002(Subs Conc)
Sequence of off-target receptors, ion channels, and transporters (Homo sapiens, UniProt P07948) (P07948 2-512): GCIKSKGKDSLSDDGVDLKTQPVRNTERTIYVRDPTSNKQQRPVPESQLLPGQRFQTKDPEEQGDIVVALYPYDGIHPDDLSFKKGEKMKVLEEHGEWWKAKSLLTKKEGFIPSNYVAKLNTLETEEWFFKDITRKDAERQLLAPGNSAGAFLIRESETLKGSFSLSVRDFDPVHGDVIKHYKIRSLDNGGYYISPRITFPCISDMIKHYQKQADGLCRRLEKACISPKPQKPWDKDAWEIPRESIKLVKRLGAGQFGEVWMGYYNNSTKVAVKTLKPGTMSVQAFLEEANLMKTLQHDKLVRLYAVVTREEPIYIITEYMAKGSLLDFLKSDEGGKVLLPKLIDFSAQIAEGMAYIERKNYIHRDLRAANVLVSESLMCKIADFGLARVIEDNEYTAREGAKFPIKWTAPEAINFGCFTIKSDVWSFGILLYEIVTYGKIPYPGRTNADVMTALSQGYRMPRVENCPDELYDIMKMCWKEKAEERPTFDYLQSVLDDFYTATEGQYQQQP

[10] = biological target: off-target receptors, ion channels, and transporters (Homo sapiens, UniProt P17948); settings: TR-FRET Kinome; Invitrogen A-1167389.7 .0125(Subs Conc)
[11] = biological target: off-target receptors, ion channels, and transporters (Homo sapiens, UniProt P08913)
Sequence of off-target receptors, ion channels, and transporters (Homo sapiens, UniProt P08913) (P08913 whole entry): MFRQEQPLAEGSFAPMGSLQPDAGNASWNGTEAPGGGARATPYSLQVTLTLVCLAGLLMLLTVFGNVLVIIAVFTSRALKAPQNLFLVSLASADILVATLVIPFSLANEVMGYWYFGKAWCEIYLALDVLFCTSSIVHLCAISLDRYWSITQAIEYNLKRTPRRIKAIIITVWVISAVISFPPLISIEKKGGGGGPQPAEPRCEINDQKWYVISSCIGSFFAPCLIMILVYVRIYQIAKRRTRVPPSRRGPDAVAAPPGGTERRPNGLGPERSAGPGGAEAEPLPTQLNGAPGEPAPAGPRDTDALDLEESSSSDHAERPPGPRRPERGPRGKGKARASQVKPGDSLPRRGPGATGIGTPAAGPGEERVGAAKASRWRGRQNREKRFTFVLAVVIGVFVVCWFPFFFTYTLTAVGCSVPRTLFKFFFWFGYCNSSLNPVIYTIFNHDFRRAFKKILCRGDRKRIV

[12] = biological target: off-target receptors, ion channels, and transporters (Homo sapiens, UniProt P35367)
Sequence of off-target receptors, ion channels, and transporters (Homo sapiens, UniProt P35367) (P35367 whole entry): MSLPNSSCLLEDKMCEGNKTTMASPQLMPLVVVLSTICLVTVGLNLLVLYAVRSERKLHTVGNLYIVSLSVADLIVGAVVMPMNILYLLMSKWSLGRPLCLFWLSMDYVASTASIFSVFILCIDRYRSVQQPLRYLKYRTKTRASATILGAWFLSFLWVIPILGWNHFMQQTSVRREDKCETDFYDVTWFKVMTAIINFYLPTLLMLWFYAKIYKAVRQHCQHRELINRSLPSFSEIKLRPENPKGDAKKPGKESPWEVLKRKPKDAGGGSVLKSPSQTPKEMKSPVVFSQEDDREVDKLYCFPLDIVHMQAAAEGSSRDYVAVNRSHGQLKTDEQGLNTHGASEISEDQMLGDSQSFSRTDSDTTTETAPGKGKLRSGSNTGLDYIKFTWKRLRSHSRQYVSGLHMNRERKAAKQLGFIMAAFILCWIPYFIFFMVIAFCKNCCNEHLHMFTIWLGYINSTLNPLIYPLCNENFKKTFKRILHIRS

[13] = biological target: off-target receptors, ion channels, and transporters (Homo sapiens, UniProt P43405); settings: TR-FRET Kinome; Invitrogen A-1167389.7 .001(Subs Conc)

SMILES: Cc1c(Cl)c2c(Cl)c(C)c1-c1c(-c3ccc(F)cc3)sc3ncnc(c13)O[C@@H](C(=O)O)Cc1cc(ccc1OCc1ccnc(-c3ccc(OC[C@H]4COCCO4)cc3)n1)OC[C@@H](CN1CCN(C)CC1)O2 [ABBV-467]
- MAP4K4 - IC50 [1]: > 10 µM
- 5-HT2A CHO Human - EC50 ([2]; Bioprofiling 6pt Ag): > 10 µM
- 5-HT2A CHO Human - IC50 ([2]; Bioprofiling 6pt Antag, Serotonin (5-HT)): > 10 µM
- pEC50 ([3]; read-out: Alpha1A CHO Human - EC50, Bioprofiling 6pt Ag): < 5.00
- pIC50 ([3]; read-out: Alpha1A CHO Human - IC50, Bioprofiling 6pt Antag, A-61603): < 5.00
- Nek2 - IC50 [4]: > 10 µM
- IGF1R - IC50 [5]: > 10 µM
- Opioid mu CHO Human - EC50 ([6]; Bioprofiling 6pt Ag): > 10 µM
- Opioid mu CHO Human - IC50 ([6]; Bioprofiling 6pt Antag, DAMGO): > 10 µM
- RIPK2 - IC50 [7]: > 10 µM
- pEC50 ([8]; read-out: Urotensin-II (UT1) Human (Functional - Agonist Effect) - EC50): < 4.52
- pIC50 ([8]; read-out: Urotensin-II (UT1) Human (Functional - Antagonist Effect) - IC50): < 4.52
- pIC50 ([9]; read-out: LYN-B - IC50): < 5.00
- pKi ([9]; read-out: LYN-B - Ki): < 5.09
- Flt1 - IC50 [10]: > 10 µM
- pEC50 ([11]; read-out: Alpha2A CHO Human - EC50, Bioprofiling 6pt Ag): < 5.00
- pIC50 ([11]; read-out: Alpha2A CHO Human - IC50, Bioprofiling 6pt Antag, UK-14304): < 5.00
- H1 CHO Human - EC50 ([12]; Bioprofiling 6pt Ag): > 10 µM
- H1 CHO Human - IC50 ([12]; Bioprofiling 6pt Antag, Histamine): > 10 µM
- Syk - IC50 [13]: > 10 µM
